Experiment [1] relates to nicotine-induced antinociception. As to the kind of experiment: Blockade of nicotine-induced antinociception, tail-flick test. In kind it is in vivo, mice. The following applies: for AD50, nicotine-induced antinociception in tail-flick test: s.c. administration; for AD50 Tail-Flick: blocking antinociception of nicotine 2.5 mg/kg, systemic administration; for Tail-flick, % blockade @ dose: s.c. Here is the method:
Anitinociception. The tail-flick method of D'Amour and Smith (1941) as modified by Dewey et al. (1970) was used. A control response (2-4 s) was determined for each animal before treatment, and a test latency was determined after drug administration. To minimize tissue damage, a maximum latency of 10 s was imposed. Antinociceptive response was calculated as percent maximum possible effect (% MPE), where % MPE=[((test-control)/(10-control))×100], Groups of 8 to 12 animals were used for each dose and for each treatment. Mice were tested 5 min after nicotine administration for the dose-response evaluation. Antagonism studies were carried out by pretreating the mice s.c. with either saline or various drugs at different times before nicotine. The animals were tested 5 min after administration of nicotine.
(§1) Data were analyzed statistically by an analysis of variance followed by the Fisher's P least-significant difference multiple comparison test. The null hypothesis was rejected at the […].
On the technique in general: Thermal pain tests record how soon the animal reacts.

Another experiment addresses T1, Dopamine transporter (Rattus norvegicus, UniProt P23977).
T1 construct: from tissue; host or cells: brain

The test system of experiment [2] is nicotine-induced hypothermia. In words: Blockade of nicotine-induced hypothermia (body temperature). In kind it is in vivo, mice. Conditions: mice; for AD50 Hypothermia: blocking nicotine-induced hypothermia, systemic administration. Here is the method:
Body Temperature. Rectal temperature was measured by a thermistor probe (inserted 24 mm) and digital thermometer (Yellow Springs Instrument Co., Yellow Springs, Ohio). Readings were taken just before and at 30 min after the s.c. injection of nicotine. For antagonism studies, mice were pretreated with either saline or various drugs 10 min before nicotine. The difference in rectal temperature before and after treatment was calculated for each mouse. The ambient temperature of the laboratory varied from 21 to 24° C. from day to day.
as §1

Experiment [3] addresses T2, Norepinephrine transporter (Rattus norvegicus, UniProt Q63380).
T2 construct: from tissue; host or cells: brain

[4] abbreviates: brain; read-out: Dopamine [3H]WIN 35,428 IC50; cited from earlier work.
The mark [5] stands for this setting: brain; read-out: Norepinephrine [3H]Nisoxetime IC50; cited from earlier work.

The structures appear in SMILES notation. Where two headings read alike, the source gives them in different places. A value given as a limit tells only on which side of the number the result lay.

As usually defined, the IC50 is the concentration at which inhibition is half-maximal.

T1 sequence (P23977 whole entry): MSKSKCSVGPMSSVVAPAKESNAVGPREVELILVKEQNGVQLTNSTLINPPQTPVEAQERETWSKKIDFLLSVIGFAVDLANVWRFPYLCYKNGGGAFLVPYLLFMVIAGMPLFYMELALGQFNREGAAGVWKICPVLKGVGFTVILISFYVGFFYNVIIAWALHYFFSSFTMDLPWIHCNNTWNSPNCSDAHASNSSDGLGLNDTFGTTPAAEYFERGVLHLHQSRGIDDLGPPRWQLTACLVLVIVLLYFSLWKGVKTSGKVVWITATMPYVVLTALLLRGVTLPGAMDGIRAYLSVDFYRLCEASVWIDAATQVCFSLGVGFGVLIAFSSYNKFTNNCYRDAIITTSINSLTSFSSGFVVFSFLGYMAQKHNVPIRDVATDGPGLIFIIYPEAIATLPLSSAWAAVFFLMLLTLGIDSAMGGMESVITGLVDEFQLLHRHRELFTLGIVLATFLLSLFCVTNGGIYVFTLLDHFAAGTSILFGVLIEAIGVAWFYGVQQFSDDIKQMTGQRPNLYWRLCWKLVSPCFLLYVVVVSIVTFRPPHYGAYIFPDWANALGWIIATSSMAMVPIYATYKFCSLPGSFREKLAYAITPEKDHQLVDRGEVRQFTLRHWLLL
T2 sequence (Q63380 1-617): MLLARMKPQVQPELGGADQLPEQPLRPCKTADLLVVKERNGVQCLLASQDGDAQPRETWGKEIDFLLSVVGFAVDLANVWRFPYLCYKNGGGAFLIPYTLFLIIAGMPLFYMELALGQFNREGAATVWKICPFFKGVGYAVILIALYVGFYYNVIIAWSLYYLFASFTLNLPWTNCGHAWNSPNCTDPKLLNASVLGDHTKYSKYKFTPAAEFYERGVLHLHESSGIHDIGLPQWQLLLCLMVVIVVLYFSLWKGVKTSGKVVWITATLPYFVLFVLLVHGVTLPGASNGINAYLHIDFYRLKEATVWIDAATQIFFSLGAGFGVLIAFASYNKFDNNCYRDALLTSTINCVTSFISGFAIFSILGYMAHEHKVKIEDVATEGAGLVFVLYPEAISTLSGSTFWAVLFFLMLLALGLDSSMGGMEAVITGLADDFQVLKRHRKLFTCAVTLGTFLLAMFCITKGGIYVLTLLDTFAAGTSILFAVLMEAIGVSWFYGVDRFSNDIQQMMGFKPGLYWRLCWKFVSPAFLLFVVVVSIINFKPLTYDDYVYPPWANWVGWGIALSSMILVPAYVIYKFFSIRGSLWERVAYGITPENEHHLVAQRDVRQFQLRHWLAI

For `COC(=O)[C@H]1[C@@H](OC(=O)c2ccccc2)C[C@@H]2CC[C@H]1[N+]2(C)C.[I-]` [cocaine methiodide, reference compound], the “Blockade of nicotine-induced antinociception (in words)” value in experiment [1] (tail-flick, mice) is reported as “failed to significantly block”; in experiment [1] (tail-flick, mice, listed as cocaine-methiodide), “Lack of blockade”.
For `Cn1c(=O)c2c(ncn2C)n(C)c1=O` [Caffeine, reference compound], the “AD50, nicotine-induced antinociception in tail-flick test” value (from here on “AD50, nicotine-induced antinociception”) in experiment [1] (mice) is listed as 32.4 μmol/hg. For the same molecule, in experiment [1] (tail-flick, mice), the “Blockade of nicotine-induced antinociception (in words)” value was “blocked nicotine-induced antinociception”.
For `CC(N)Cc1ccccc1` (stereo not shown) [Amphetamine, reference compound] the same measures were 36.9 μmol/hg and “blocked nicotine-induced antinociception”.
For the molecule `COC(=O)[C@H]1[C@@H](c2ccccc2)C[C@@H]2CC[C@H]1N2C` [WIN 35,065-2, reference compound], the concentration for half-maximal inhibition (IC50) at Dopamine transporter (setting [4]) is 23 nM. Moreover, in experiment [2], the “AD50 Hypothermia” value stood at 6.7 μmol/hg and the “Blockade of nicotine-induced hypothermia (in words)” value is “significantly blocked”. Moreover, the “AD50 Tail-Flick” value in experiment [1] (mice) turned out to be 8.0 μmol/hg. In experiment [1] (tail-flick, mice), the “Times less potent than cocaine in blocking nicotine's antinociceptive effect” value came out at 2.5 times. Also, in experiment [3] (setting [5]), the half-maximal inhibitory concentration (IC50) is 920 nM.
Turning to `CC(NC(C)(C)C)C(=O)c1cccc(Cl)c1` (stereo not shown) [Bupropion, reference compound], in experiment [1] (mice), the “AD50, nicotine-induced antinociception” value is recorded as 8 μmol/hg. Also, in experiment [1] (tail-flick, mice), the “Blockade of nicotine-induced antinociception (in words)” value is on record as “dose-dependently blocked” and the “Relative potency in blocking nicotine's antinociceptive effect (in words, comparator in the value)” value is recorded as “as potent as GBR 12909”.
Taken in the same sequence, the figures for `CN1Cc2c(N)cccc2C(c2ccccc2)C1` (stereo not shown) [Nomifensine, reference compound] were 1.7 μmol/hg, “dose-dependently blocked” and “five times more potent than GBR 12909”.
With `CNCCC(Oc1ccccc1OC)c1ccccc1` (stereo not shown) [Nisoxetine, reference compound], in experiment [1] (mice), the “AD50, nicotine-induced antinociception” value is listed as 7.4 μmol/hg.
As to `CCN(CC)CCOC(=O)c1ccc(N)cc1` [Procaine, reference compound], in experiment [1] (@ 75 μmol/hg), the “Tail-flick, % blockade @ dose” value is on record as 5% @ 75. Moreover, the “Blockade of nicotine-induced antinociception (in words)” value in experiment [1] (tail-flick, mice) is recorded as “failed to significantly block”.
Take `COC(=O)[C@H]1[C@@H](c2ccc(C)cc2)C[C@@H]2CC[C@H]1N2C` [RTI-32]: at Dopamine transporter (setting [4]), the IC50 was 1.7 nM. For the same molecule, in experiment [2], the “AD50 Hypothermia” value came out at 31.7 μmol/hg and the “Blockade of nicotine-induced hypothermia (in words)” value is given as “significantly blocked”. Besides, in experiment [1] (mice), the “AD50 Tail-Flick” value worked out at 2.0 μmol/hg. Moreover, in experiment [3] (setting [5]), the half-maximal inhibitory concentration (IC50) is 60 nM.
As for `CNCCC(Oc1ccc(C(F)(F)F)cc1)c1ccccc1` (stereo not shown) [Fluoxetine, reference compound], in experiment [1] (@ 86.7 μmol/hg), the “Tail-flick, % blockade @ dose” value is on record as 15% @ 86.7. Moreover, the “Blockade of nicotine-induced antinociception (in words)” value in experiment [1] (tail-flick, mice) is reported as “failed to significantly block”.
On to `COC(=O)C(c1ccccc1)C1CCCCN1` (stereo not shown) [Methylphenidate, reference compound], for which the “Tail-flick, % blockade @ dose” value in experiment [1] (@ 74 μmol/hg) turned out to be 5% @ 74. Moreover, the “Blockade of nicotine-induced antinociception (in words)” value in experiment [1] (tail-flick, mice) is on record as “failed to block”.
As to `CC(C)OC(=O)C1C(c2ccc(I)cc2)CC2CCC1N2C` (stereo not shown) [RTI-121], the concentration for half-maximal inhibition (IC50) on Dopamine transporter (read-out: Dopamine [3H]WIN 35,428 IC50; brain; cited from earlier work) is 0.4 nM. In experiment [2], the “AD50 Hypothermia” value worked out at 49 μmol/hg, the “Blockade of nicotine-induced hypothermia (in words)” value is recorded as “significantly blocked” and the “Fold less potent in blocking nicotine hypothermia than antinociception” value is greater than 100 fold. In addition, the “AD50 Tail-Flick” value in experiment [1] (mice) turned out to be 0.3 μmol/hg. In addition, in experiment [1] (tail-flick, mice), the “Fold more potent than cocaine in blocking nicotine's antinociceptive effect” value was 10 fold. The IC50 in experiment [3] (read-out: Norepinephrine [3H]Nisoxetime IC50; brain; cited from earlier work) was 285 nM.
`CCN(CC)CC(=O)Nc1c(C)cccc1C` [Lidocaine, reference compound]: the “Tail-flick, % blockade @ dose” value in experiment [1] (@ 75 μmol/hg) turned out to be 7% @ 75. Moreover, the “Blockade of nicotine-induced antinociception (in words)” value in experiment [1] (tail-flick, mice) is “failed to significantly block”.
Take `Fc1ccc(C(OCCN2CCN(CCCc3ccccc3)CC2)c2ccc(F)cc2)cc1` [GBR 12909, reference compound]: in experiment [1] (mice), the “AD50, nicotine-induced antinociception” value is 8.4 μmol/hg.
